Data published in patent US7807384B2, “Low density lipoprotein binding proteins and their use in diagnosing and treating atherosclerosis” (Boston Heart Foundation, Inc., priority 1996, dated 2010).

Experiments:
LBP-1/LDL binding = molecular target: T1, LBP-1/LDL binding (Homo sapiens, UniProt P04114); assay: ACE assay of LBP-1/LDL binding in the presence of inhibitors; set-up: species or system rabbit; conditions: LDL 148 nM in gel; increasing inhibitor (polyglutamic acid 0-0.4 nM; BHF-1 0-10 nM)
T1 construct: the sizes of the recombinant proteins were determined to be 16.2 kDa for LBP-1; LDL was prepared from the plasma of normolipemic donors; 6-histidine tag (N); made in house; host or cells: E. coli DH10B, pPROEX-HT (LBP-1); LDL from human donor plasma
T1 sequence (P04114 28-4563): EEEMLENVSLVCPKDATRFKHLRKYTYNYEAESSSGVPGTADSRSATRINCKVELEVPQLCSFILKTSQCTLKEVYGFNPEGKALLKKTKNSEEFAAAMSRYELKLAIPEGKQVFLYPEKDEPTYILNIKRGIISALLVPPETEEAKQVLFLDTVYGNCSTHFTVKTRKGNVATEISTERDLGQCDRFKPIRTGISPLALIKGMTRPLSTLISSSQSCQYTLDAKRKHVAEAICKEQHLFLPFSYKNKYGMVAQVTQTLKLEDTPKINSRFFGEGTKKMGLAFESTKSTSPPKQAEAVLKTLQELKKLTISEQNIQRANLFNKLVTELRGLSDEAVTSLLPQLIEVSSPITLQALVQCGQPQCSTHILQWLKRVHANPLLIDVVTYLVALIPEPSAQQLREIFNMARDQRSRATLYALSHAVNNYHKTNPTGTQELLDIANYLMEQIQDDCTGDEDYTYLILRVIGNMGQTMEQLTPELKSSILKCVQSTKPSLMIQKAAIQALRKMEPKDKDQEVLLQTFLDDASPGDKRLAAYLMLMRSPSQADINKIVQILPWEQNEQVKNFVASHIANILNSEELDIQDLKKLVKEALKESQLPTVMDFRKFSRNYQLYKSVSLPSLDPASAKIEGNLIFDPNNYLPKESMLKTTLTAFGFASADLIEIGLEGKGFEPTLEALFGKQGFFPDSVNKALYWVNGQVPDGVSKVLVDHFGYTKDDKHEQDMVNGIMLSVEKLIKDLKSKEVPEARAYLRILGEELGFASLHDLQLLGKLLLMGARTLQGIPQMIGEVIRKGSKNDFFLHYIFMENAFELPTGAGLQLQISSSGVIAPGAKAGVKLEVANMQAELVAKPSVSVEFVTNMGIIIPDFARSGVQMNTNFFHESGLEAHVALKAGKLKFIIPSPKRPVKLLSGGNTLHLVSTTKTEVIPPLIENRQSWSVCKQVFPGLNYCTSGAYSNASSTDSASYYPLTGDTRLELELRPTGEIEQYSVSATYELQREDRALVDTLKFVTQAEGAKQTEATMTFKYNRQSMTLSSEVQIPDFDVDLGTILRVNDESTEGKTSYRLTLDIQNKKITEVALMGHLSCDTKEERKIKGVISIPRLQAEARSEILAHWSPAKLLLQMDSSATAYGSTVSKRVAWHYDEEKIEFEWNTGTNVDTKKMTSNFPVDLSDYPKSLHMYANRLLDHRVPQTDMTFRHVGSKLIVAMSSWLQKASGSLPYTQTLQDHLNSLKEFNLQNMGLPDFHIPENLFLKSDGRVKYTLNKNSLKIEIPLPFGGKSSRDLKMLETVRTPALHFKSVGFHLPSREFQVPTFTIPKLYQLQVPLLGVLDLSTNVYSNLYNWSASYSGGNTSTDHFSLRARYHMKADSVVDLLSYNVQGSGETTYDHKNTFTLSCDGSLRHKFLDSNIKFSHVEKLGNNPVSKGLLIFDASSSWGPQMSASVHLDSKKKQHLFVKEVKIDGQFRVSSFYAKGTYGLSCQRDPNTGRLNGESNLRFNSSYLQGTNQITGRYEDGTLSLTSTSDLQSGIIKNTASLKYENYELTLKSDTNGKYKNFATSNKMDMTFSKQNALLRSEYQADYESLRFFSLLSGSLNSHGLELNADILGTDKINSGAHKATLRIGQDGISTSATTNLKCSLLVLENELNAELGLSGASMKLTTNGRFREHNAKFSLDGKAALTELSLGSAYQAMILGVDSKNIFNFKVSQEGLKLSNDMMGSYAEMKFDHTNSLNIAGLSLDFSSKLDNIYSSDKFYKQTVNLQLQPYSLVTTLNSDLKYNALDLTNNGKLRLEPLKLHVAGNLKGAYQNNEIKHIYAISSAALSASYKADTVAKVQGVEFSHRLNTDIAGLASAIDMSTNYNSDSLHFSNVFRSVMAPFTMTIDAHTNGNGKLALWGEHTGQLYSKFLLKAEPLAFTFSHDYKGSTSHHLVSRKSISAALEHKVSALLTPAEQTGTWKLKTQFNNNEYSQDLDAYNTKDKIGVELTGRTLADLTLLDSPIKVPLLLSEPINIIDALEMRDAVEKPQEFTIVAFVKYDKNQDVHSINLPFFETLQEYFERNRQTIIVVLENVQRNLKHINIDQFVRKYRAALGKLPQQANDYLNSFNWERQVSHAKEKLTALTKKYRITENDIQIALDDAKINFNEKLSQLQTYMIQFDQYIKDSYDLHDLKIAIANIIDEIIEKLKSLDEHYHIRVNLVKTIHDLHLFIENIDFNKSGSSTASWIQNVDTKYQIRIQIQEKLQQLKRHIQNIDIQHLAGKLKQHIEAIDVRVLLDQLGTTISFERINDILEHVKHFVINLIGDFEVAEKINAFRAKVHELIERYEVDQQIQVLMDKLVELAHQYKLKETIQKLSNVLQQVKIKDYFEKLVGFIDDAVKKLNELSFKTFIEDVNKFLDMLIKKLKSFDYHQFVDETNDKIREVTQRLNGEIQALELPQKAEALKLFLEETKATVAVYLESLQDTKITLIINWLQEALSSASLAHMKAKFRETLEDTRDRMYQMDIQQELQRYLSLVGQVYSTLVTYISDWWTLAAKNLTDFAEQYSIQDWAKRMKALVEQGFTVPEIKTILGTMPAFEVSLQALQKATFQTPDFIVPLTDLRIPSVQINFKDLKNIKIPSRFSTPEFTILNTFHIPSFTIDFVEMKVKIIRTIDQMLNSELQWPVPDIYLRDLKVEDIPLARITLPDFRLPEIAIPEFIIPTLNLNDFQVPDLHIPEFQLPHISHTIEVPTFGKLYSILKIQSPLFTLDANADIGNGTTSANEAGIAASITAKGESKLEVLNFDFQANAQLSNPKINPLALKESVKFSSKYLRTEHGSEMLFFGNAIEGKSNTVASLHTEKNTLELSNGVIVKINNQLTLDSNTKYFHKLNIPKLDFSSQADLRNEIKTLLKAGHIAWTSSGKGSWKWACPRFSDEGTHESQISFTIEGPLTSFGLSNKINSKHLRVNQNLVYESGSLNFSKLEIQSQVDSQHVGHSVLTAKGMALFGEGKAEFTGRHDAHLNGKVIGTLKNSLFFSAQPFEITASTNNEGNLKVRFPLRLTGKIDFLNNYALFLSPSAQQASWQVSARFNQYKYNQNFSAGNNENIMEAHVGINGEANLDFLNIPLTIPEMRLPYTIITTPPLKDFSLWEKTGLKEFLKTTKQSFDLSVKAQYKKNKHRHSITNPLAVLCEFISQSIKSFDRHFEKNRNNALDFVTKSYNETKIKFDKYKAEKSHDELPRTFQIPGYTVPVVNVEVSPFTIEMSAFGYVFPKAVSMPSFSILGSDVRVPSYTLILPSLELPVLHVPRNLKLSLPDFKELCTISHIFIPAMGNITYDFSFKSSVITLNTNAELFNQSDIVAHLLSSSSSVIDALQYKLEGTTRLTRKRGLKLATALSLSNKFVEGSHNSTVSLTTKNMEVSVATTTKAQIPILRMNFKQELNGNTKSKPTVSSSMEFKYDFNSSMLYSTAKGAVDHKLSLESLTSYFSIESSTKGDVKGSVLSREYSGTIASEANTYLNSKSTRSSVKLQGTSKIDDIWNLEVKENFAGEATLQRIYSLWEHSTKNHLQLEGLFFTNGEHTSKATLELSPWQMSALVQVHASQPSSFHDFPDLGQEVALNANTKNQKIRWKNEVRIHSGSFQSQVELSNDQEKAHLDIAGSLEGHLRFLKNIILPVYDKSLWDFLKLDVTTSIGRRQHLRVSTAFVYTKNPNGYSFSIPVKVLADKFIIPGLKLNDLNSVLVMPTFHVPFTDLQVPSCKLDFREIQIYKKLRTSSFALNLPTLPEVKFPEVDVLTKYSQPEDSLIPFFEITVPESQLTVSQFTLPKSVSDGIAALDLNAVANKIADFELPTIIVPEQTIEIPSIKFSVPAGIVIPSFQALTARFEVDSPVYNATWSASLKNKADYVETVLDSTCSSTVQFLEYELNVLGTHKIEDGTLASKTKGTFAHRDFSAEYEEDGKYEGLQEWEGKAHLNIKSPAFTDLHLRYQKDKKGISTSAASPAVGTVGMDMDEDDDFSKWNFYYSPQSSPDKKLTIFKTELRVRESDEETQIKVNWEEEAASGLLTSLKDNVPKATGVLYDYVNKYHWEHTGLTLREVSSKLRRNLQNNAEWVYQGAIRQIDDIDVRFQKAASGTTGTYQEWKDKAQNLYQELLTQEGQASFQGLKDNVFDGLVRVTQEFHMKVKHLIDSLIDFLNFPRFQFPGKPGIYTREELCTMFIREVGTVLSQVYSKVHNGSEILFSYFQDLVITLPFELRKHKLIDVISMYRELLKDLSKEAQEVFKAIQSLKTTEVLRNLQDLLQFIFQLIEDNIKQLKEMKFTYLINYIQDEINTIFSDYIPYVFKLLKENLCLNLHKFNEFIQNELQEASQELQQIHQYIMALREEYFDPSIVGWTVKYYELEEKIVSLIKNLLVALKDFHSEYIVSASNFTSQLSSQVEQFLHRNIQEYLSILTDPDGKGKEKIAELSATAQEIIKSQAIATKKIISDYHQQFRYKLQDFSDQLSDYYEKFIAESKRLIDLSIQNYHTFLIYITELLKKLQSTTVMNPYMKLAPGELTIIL
Protocol: (§1) This example illustrates that binding between LBP-1 or LBP-2 and LDL is inhibited by polyglutamic acid or BHF-1. The ability of a third compound to inhibit binding between two proteins previously shown to interact was tested by a modification of the ACE assays described in Example 8. The third compound was added to the top or wells together with the radiolabeled protein.
(§2) Inhibition of LBP-1/LDL or LBP-2/LDL binding by polyglutamic acid (average MW about 7500, corresponding to about […]) was shown by casting a constant amount of LDL (148 nM) in all the rectangular lanes. A constant amount (1 μl) of ^125I-labeled LBP-1 or LBP-2 (0.003 nM-0.016 nM) was loaded in the wells at the top of the gel, together with increasing concentrations of polyglutamic acid (obtained from Sigma) (0-0.4 nM). The gel was electrophoresed at 70 volts for 2 hr, dried and placed on X-ray film, with intensifying screens, overnight at −70° C. before the film was developed to determine the retardation profile of LBP-1 and LBP-2.
Inhibition of LBP-1/LDL binding by BHF-1 was shown by casting a constant amount of LDL (148 nM) in all the rectangular lanes. A constant amount of ^125I-labeled LBP-1 (0.003 nM-0.016 nM) was loaded in the wells at the top of the gel, together with increasing concentrations of BHF-1 (0-10 nM), obtained as described in Example 15. […]

recombinant LBP-1 = molecular target: T2, recombinant LBP-1 (Homo sapiens, UniProt P04114); assay: ELISA plate assay, binding of LDL to recombinant LBP-1; conditions: ELISA format
T2 construct: the sizes of the recombinant proteins were determined to be 16.2 kDa for LBP-1; 6-histidine tag (N); made in house; host or cells: E. coli DH10B, pPROEX-HT (LBP-1); LDL from human donor plasma
T2 sequence (P04114 28-4563): as above
Protocol: (§3) In one example, the ELISA assay was carried out as follows: LDL was diluted in 50 mM Na2HCO3, pH 9.6/0.02% NaN3 and added to the wells of a 96-well plate (ImmunoWare 96-Well Reacti-Bind EIA Polystyrene Plates; Pierce (Rockford, Ill.)) to achieve a final concentration ranging from 0.1 to 1 μg/well. The plates were incubated for 6 hr at room temperature. At the end of the incubation period, the wells were washed 3 times with Tris-buffered saline, pH 7.4 (TBS), and blocked overnight with 200 μl of 1% bovine serum albumin (BSA) in TBS/0.02% NaN3 (Sigma; St. Louis Mo.) at room temperature. The wells were then incubated with 200 μl of LBP protein (5-10 μg/well) in TBS and varying concentrations of the test compound. Plates were incubated for 1 hr at room temperature. The wells were then washed three times with TBS and blocked for 2 hr with 200 μl of 1% BSA in TBS/0.02% NaN3 at room temperature. At the end of the incubation period, the wells were washed 3 times with TBS and a 1:1000 dilution (in TBS/0.05% Tween 20) of the appropriate guinea pig anti-LBP protein polyclonal antibody was added to the wells and incubated for 1 hr at room temperature. […] The absorbance was determined at 405 nm using an ELISA plate reader. The test compound's effectiveness in blocking the binding of LDL to the recombinant protein was assessed by comparing the absorbance values of control and treated groups. […]

[1] = tested on: ballooned deendothelialized rabbit aorta; assay: Radiolabeled LDL accumulation in ballooned deendothelialized abdominal aorta after active immunization; assay type: in vivo; conditions: immunized with RIBI adjuvant; corrected for dosage and percent reendothelialization; 24 hr after 125I-LDL
Protocol: Immunity was induced in male New Zealand White rabbits (Hazelton Research Products, Denver, Pa.) as follows: A mixture of purified human recombinant LBP-2 or BHF-1 peptide (1 ml; 1 mg) and RIBI adjuvant (RIBI ImmunoChem Research, Inc., Hamilton, Mont.) was injected subcutaneously at 2-5 sites along the dorsal thoracic and abdominal regions of the rabbits. Blood was collected by venipuncture on days 1 (preimmune bleeding), 35, 63, and 91. Booster injections were administered on days 28 (500 μg; SC), 56 (250 μg; SC), and 84 (125 μg; SC).
On day 93, the abdominal aorta of immunized and control rabbits was deendothelialized using a Fogarty number 4 embolectomy catheter (Chang et al., Arteriosclerosis and Thrombosis 12:1088-1098 (1992)). Four weeks after ballooning, rabbits received a bolus injection of ^125I-labeled LDL (1 ml; i.v.). […] Blood samples were centrifuged for 30 min at 2000 rpm ([…]) and total activity present in the serum was determined using a Gamma counter. Total TCA precipitable counts were determined by addition of TCA to the serum to a final concentration of 10% followed by incubation for 10 min at 4° C. Serum samples were then centrifuged (2000 rpm; 30 min; […]) and total activity present in the supernate was determined. TCA precipitable counts were calculated by subtraction: total soluble counts minus counts present in the supernate after TCA precipitation. […]

recombinant LBP-2 = assay: ELISA plate assay, binding of LDL to recombinant LBP-2; conditions: ELISA format
Protocol: as §3

[2] = tested on: LDL receptor (LDLR) knockout mice; assay: Aortic cholesterol content in BHF-1-immunized LDLR knockout mice; assay type: in vivo, mouse; conditions: 30 weeks of age, modified Western Type diet, P>0.037 as printed
Protocol: An immunization experiment was performed with the BHF-1 peptide. LDL receptor (LDLR) knockout mice (B6,129S-Ldlr^tmlHer, Jackson Laboratories, Bar Harbor, Me.) were injected with the BHF-1 peptide (see Example 15 for methods of synthesizing the BHF-1 peptide) together with an RIBI adjuvant (RIBI ImmunoChem Research, Inc., Hamilton, Mont.). LDLR knockout mice are hyperlipidemic and thus a model for human atherosclerosis. LDLR knockout mice have high levels of plasma cholesterol and develop naturally-occurring atherosclerotic-like lesions.
Four week old LDLR knockout mice were ear tagged, randomly assigned to different cages and weighed. Body weights were subsequently determined weekly. Animals were allowed to habituate for one week prior to experimentation. […]
Mice in the experimental group received subcutaneous injections (9.99 μg/g body weight; 200 μl final volume) of the BHF-1.20.L peptide daily for 2 weeks, from 5 to 7 weeks of age, prior to the initial injection with the peptide and adjuvant. […] Titer was defined as the maximum dilution of serum that yielded a change in absorbance equivalent to 2× that of control serum (60 min; 37° C.). […]
At 30 weeks of age, the mice were sacrificed and aorta were removed as described in Example 22. Aortic atherosclerosis was measured by the cholesterol extraction method described in Example 22, whereby cholesterol is determined as a unit weight of artery.

[3] = Body weight and serum lipids of BHF-1-immunized LDLR knockout mice; assay type: in vivo, mouse
From the text: Four week old LDLR knockout mice were ear tagged, randomly assigned to different cages and weighed. Body weights were subsequently determined weekly. Animals were allowed to habituate for one week prior to experimentation. Normal rodent chow was provided ad libitum and animals were maintained in a 12:12 light:dark cycle. Animals were divided into experimental and control groups, as follows: (1) experimental, 16 mice were immunized with the BHF-1.20.L peptide; (2) control, 8 mice were immunized against bovine serum albumin.
Blood samples were analyzed for total cholesterol, HDL cholesterol, and triglyceride concentration, using commercially available total cholesterol and triglycerides assay kits (Sigma, St. Louis Mo.) (ELISA). HDL concentration was determined after Apo B containing lipoproteins were precipitated using heparin/MnCl2.
When fed a normal rodent chow, total serum cholesterol concentration in LDLR knockout mice remains relatively low. A high fat diet, on the other hand, results in an increase in total serum cholesterol concentration in these mice. The animals were thus switched at 16 weeks of age to a modified “Western Type” diet (0.1% cholesterol content) (Harland Teklad, Madison, Wis.) and fed ad libitum. This diet was expected to increase the total serum cholesterol concentration to a range of 600-800 mg/dl, thereby increasing the rate of lesion formation. […]

LBP-2/LDL binding = molecular target: T3, LBP-2/LDL binding (Homo sapiens, UniProt P04114); assay: ACE assay of LBP-2/LDL binding in the presence of inhibitors; set-up: species or system rabbit; conditions: LDL 148 nM in gel; polyglutamic acid 0-0.4 nM
T3 construct: LDL was prepared from the plasma of normolipemic donors; 6-histidine tag (N); made in house; host or cells: E. coli DH10B, pPROEX-HT (LBP-2); LDL from human donor plasma
T3 sequence (P04114 28-4563): as above
Protocol: as §1, §2

Substance | Inhibition of binding between LBP-1 and LDL (LBP-1/LDL binding) | Binding of LDL to recombinant LBP-1 (recombinant LBP-1) | Accumulation of radiolabeled LDL in ballooned abdominal aorta versus nonimmune-ballooned rabbits [1] | Binding of LDL to recombinant LBP-2 (recombinant LBP-2) | Less aortic cholesterol content as compared to control mice [2] [%] | Effect of immunization on body weight [3] | Inhibition of binding between LBP-2 and LDL (LBP-2/LDL binding)
val-asp-val-asp-glu-tyr-asp-glu-asn-lys-phe-val-asp-glu-glu-asp-gly-gly-asp-gly (VDVDEYDENKFVDEEDGGDG; listed as Homo sapiens) [BHF-1] | inhibited binding | reduce the binding | lower accumulation | reduce the binding | 24 | no effect | –
polyglutamic acid [reference compound] | inhibited binding | – | – | – | – | – | inhibited binding
